Measurements as given in US20200024278A1, “COMPOSITION COMPRISING ANTIBIOTIC COMPOUND AND AN HETEROCYCLIC COMPOUND AND THEIR USE IN PREVENTING OR TREATING BACTERIAL INFECTIONS” (MUTABILIS, priority 2016, published 2020).

Tests used:
Experiment in all cases: MIC, broth microdilution (CLSI), substance alone or ATB combined with compound at 4 or 8 μg/mL
ABA 107292 = type: cell-based, A. baumannii; settings: Acinetobacter baumannii, substance alone, read-out: MIC
Outline: (§1)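 Potentiation format: antibiotic dilution series run with test compound held at 4 or 8 μg/mL, alongside compound-alone MICs. Broth microdilution per CLSI in ca-MHB, 16-20 h at 35° C.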

ABA 19606 = type: cell-based, A. baumannii; settings: Acinetobacter baumannii, substance alone, read-out: MIC
Outline: as §1

ECO UFR39 = type: cell-based, E. coli; settings: ECO UFR39; for MIC ATB combined with Example compound: compound @8 μg/ml
Outline: as §1

ECO 190317 = type: cell-based, E. coli; settings: ECO 190317
Outline: as §1

PAE 105250 = type: cell-based, P. aeruginosa; settings: PAE 105250; for MIC ATB combined with compound / MIC ATB combined with Example compound: compound @8 μg/ml
Outline: as §1

PAE UFR48 = type: cell-based, P. aeruginosa; settings: PAE UFR48; for MIC ATB combined with compound / MIC ATB combined with Example compound: compound @8 μg/ml
Outline: as §1

PAE UFR90 = type: cell-based, P. aeruginosa; settings: PAE UFR90; for MIC ATB combined with compound / MIC ATB combined with Example compound: compound @8 μg/ml
Outline: as §1

SAU 29213 = type: cell-based, S. aureus; settings: for MIC ATB combined with compound / MIC ATB combined with Example compound: compound @8 μg/ml, SAU 29213
Outline: as §1

KPN UFR42 = type: cell-based, K. pneumoniae; settings: KPN UFR42; for MIC ATB combined with Example compound: compound @8 μg/ml
Outline: as §1

KPN 6299 = type: cell-based, K. pneumoniae; settings: MIC of CIP, compound @8 μg/ml
Outline: as §1

KPN BAA-1898 = type: cell-based, K. pneumoniae; settings: KPN BAA-1898
Outline: as §1

SPN 49619 = type: cell-based, S. pneumoniae; settings: SPN 49619; for MIC ATB combined with compound / MIC ATB combined with Example compound: compound @8 μg/ml
Outline: as §1

ECL P99 = type: cell-based, E. cloacae; settings: ECL P99
Outline: as §1

[1] = Escherichia coli, substance alone, read-out: MIC
[2] = Pseudomonas aeruginosa, substance alone, read-out: MIC

NC[C@H]1C=C(c2cnco2)[C@@H]2CN1C(=O)N2OS(=O)(=O)[O-].O=C(O)C(F)(F)F.[Na+] (relative stereo) [Example 1, sodium and 2,2,2-trifluoroacetate [trans-2-(azaniumylmethyl)-4-oxazol-5-yl-7-oxo-1,6-diazabicyclo[3.2.1]oct-3-en-6-yl] sulfate]
<=0.031 μg/mL: MIC ATB combined with Example compound (SPN 49619; MIC of CPO)
0.125 mg/L: MIC ATB combined with compound (SAU 29213; ATB MEM) | MIC ATB combined with Example compound (SAU 29213; MIC of CLI) | MIC ATB combined with Example compound (SPN 49619; MIC of DAP)
0.5 mg/L: MIC (PAE UFR90; [2]) | MIC ATB combined with Example compound (SAU 29213; MIC of CIP) | MIC ATB combined with Example compound (SAU 29213; MIC of SYN) | MIC ATB combined with compound (SPN 49619; ATB PIP) | MIC ATB combined with Example compound (SPN 49619; MIC of SYN)
<0.125 mg/L: MIC ATB combined with compound (PAE UFR90; ATB FOS)
0.0078 mg/L: MIC ATB combined with Example compound (SAU 29213; MIC of DAP) | MIC ATB combined with Example compound (SAU 29213; MIC of RIF)
32 mg/L: MIC ATB combined with Example compound (KPN 6299) | MIC ATB combined with compound (SPN 49619; ATB FOS)
0.063 mg/L: MIC ATB combined with compound (SPN 49619; ATB FEP) | MIC ATB combined with compound (SPN 49619; ATB MEM) | MIC ATB combined with Example compound (SPN 49619; MIC of CLI) | MIC ATB combined with Example compound (SPN 49619; MIC of ERY) | MIC ATB combined with Example compound (SPN 49619; MIC of RIF)
0.031 mg/L: MIC (ECO UFR39; [1]) | MIC (ECO 190317; [1]) | MIC (ECL P99; Enterobacter cloacae, substance alone, read-out: MIC)
16 mg/L: MIC ATB combined with Example compound (KPN UFR42; MIC of CPO) | MIC ATB combined with Example compound (KPN BAA-1898; MIC of CIP, compound @8 μg/ml)
>32 mg/L: MIC ATB combined with compound (SAU 29213; ATB ATM) | MIC ATB combined with Example compound (KPN UFR42; MIC of CIP) | MIC ATB combined with compound (SPN 49619; ATB ATM)
5 mg/L: MIC ATB combined with compound (SAU 29213; ATB PIP)
> 32 mg/L: MIC (ABA 107292) | MIC (ABA 19606) | MIC (PAE 105250; [2]) | MIC (SAU 29213; Staphylococcus aureus, substance alone, SAU 29213 (MSSA 29213), read-out: MIC) | MIC (KPN UFR42; Klebsiella pneumoniae, substance alone, read-out: MIC) | MIC (KPN BAA-1898; Klebsiella pneumoniae, BAA1898, substance alone, read-out: MIC) | MIC (SPN 49619; Streptococcus pneumoniae, substance alone, read-out: MIC)
2 mg/L: MIC ATB combined with compound (PAE UFR48; ATB FOS) | MIC ATB combined with Example compound (SAU 29213; MIC of LZD)
1 mg/L: MIC ATB combined with compound (SAU 29213; ATB FOS) | MIC ATB combined with Example compound (SAU 29213; MIC of CPO) | MIC ATB combined with Example compound (SAU 29213; MIC of VAN) | MIC ATB combined with Example compound (SPN 49619; MIC of CIP) | MIC ATB combined with Example compound (SPN 49619; MIC of LZD)
4 mg/L: MIC ATB combined with compound (PAE 105250; ATB FOS) | MIC (PAE UFR48; [2]) | MIC ATB combined with compound (SAU 29213; ATB FEP)
<0.031 mg/L: MIC ATB combined with Example compound (ECO UFR39; MIC of CIP) | MIC ATB combined with Example compound (ECO UFR39; MIC of CPO) | MIC ATB combined with Example compound (ECO 190317; MIC of CIP, compound @8 μg/ml) | MIC ATB combined with compound (PAE 105250; ATB ATM) | MIC ATB combined with compound (PAE 105250; ATB FEP) | MIC ATB combined with compound (PAE 105250; ATB MEM) | MIC ATB combined with compound (PAE 105250; ATB PIP) | MIC ATB combined with Example compound (PAE 105250; MIC of CIP) | MIC ATB combined with Example compound (PAE 105250; MIC of CPO) | MIC ATB combined with compound (PAE UFR48; ATB ATM) | MIC ATB combined with compound (PAE UFR48; ATB FEP) | MIC ATB combined with compound (PAE UFR48; ATB MEM) | MIC ATB combined with compound (PAE UFR48; ATB PIP) | MIC ATB combined with Example compound (PAE UFR48; MIC of CIP) | MIC ATB combined with Example compound (PAE UFR48; MIC of CPO) | MIC ATB combined with compound (PAE UFR90; ATB ATM) | MIC ATB combined with compound (PAE UFR90; ATB FEP) | MIC ATB combined with compound (PAE UFR90; ATB MEM) | MIC ATB combined with compound (PAE UFR90; ATB PIP) | MIC ATB combined with Example compound (PAE UFR90; MIC of CIP) | MIC ATB combined with Example compound (PAE UFR90; MIC of CPO) | MIC ATB combined with Example compound (ECL P99; MIC of CIP, compound @8 μg/ml)
0.25 mg/L: MIC ATB combined with Example compound (SAU 29213; MIC of ERY) | MIC ATB combined with Example compound (SPN 49619; MIC of VAN)
